Data on 1 substance can be found in US20110039815A1, “MACROCYCLIC METAL COMPLEXES FOR THEIR USE AS ANTICANCER AGENTS” (priority 2005, published 2011).

Series [1] relates to cervical cancer cell line Hela S3. Put plainly: Cell death of cervical cancer cell line Hela S3. Format: cell-based.
The conditions of series [2]: rat, intravenous injection, approximately 172 mg/kg during a six hour period, 0.7% saline.

Regarding ^Me3TacnRhCl3 [formula 8], the stability in water result is reported as “stable”. Also, the “anticancer activity against Hela S3” value in series [1] is listed as “positive”. Also, the “Hela cell death rate” value in series [1] (10^−2 molar preparation (1.5×10^−2 M)) was “approximately 93.1%”. The “Hela cell death rate” value in series [1] (10^−3 molar preparation (1.5×10^−3 M)) is listed as “approximately 90%”. Moreover, the “complex-related toxicity or side effects” value in series [2] is “no complex-related toxicity or side effects”.
